Measurements reported in the NIST ThermoML archive (doi:10.1016/j.tca.2016.06.023).
Numbers after ± are expanded uncertainties.

Experiments:
[1] = xn = mol fraction of the nth substance listed; settings: 81.5 kPa, Liquid, Vibrating tube method
[2] = refractive index (Na D-line) (dimensionless); xn = mol fraction of the nth substance listed; settings: 81.5 kPa, Liquid, Standard Abbe refractometry

| SMILES | mass density ([1]; 293.15 K, x2 = 0) | mass density ([1]; 303.15 K, x2 = 0) | mass density ([1]; 313.15 K, x2 = 0) | mass density ([1]; 323.15 K, x2 = 0) | mass density ([1]; 333.15 K, x2 = 0) | refractive index ([2]; 293.15 K, x2 = 0) | refractive index ([2]; 303.15 K, x2 = 0) | refractive index ([2]; 313.15 K, x2 = 0) | refractive index ([2]; 323.15 K, x2 = 0) | refractive index ([2]; 333.15 K, x2 = 0) | mass density ([1]; 293.15 K, x1 = 1) | mass density ([1]; 303.15 K, x1 = 1) | mass density ([1]; 313.15 K, x1 = 1) | mass density ([1]; 323.15 K, x1 = 1) | mass density ([1]; 333.15 K, x1 = 1) | refractive index ([2]; 293.15 K, x1 = 1) | refractive index ([2]; 303.15 K, x1 = 1) | refractive index ([2]; 313.15 K, x1 = 1) | refractive index ([2]; 323.15 K, x1 = 1) | refractive index ([2]; 333.15 K, x1 = 1) |
| --- | --- | --- | --- | --- | --- | --- | --- | --- | --- | --- | --- | --- | --- | --- | --- | --- | --- | --- | --- | --- |
| O=[N+]([O-])c1ccccc1 [nitrobenzene] + Clc1ccccc1 | 1203.05 ± 10 kg/m3 | 1193.15 ± 10 kg/m3 | 1183.21 ± 10 kg/m3 | 1173.27 ± 10 kg/m3 | 1163.32 ± 10 kg/m3 | 1.55241 ± 0.01 | 1.54763 ± 0.01 | 1.54288 ± 0.01 | 1.53795 ± 0.01 | 1.53289 ± 0.01 |  |  |  |  |  |  |  |  |  |  |
| Clc1ccccc1 [chlorobenzene] + Brc1ccccc1 |  |  |  |  |  |  |  |  |  |  | 1106.49 ± 10 kg/m3 | 1095.71 ± 10 kg/m3 | 1084.86 ± 10 kg/m3 | 1073.96 ± 10 kg/m3 | 1063.01 ± 10 kg/m3 | 1.52455 ± 0.01 | 1.51902 ± 0.01 | 1.51346 ± 0.01 | 1.50781 ± 0.01 | 1.50223 ± 0.01 |
| O=[N+]([O-])c1ccccc1 [nitrobenzene] + Brc1ccccc1 | 1203.05 ± 10 kg/m3 | 1193.15 ± 10 kg/m3 | 1183.21 ± 10 kg/m3 | 1173.27 ± 10 kg/m3 | 1163.32 ± 10 kg/m3 | 1.55241 ± 0.01 | 1.54763 ± 0.01 | 1.54288 ± 0.01 | 1.53795 ± 0.01 | 1.53289 ± 0.01 |  |  |  |  |  |  |  |  |  |  |
